Laboratory results from US20230192700A1, “PYRAZOLOPYRAZINES ACTING ON CANCERS VIA INHIBITION OF CDK12” (Bayer Aktiengesellschaft, priority 2020, published 2023).

Assays:
CDK9/CyclinT1 = molecular target: T1, CDK9/CyclinT1 (Homo sapiens, UniProt P50750); test: CDK9/CycT1 high ATP kinase assay (TR-FRET); format: biochemical; conditions: 2 mM ATP (high ATP); median; read-out: CDK9/CyclinT1, 2 mM ATP (high ATP) IC50 - [mol/l] (median)
T1 construct: Recombinant full-length His-tagged human CDK9 and CycT1; His-tag; purchased Life Technologies PV4131; host or cells: insect cells
Method in brief: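 Full-length His-tagged human CDK9/CycT1 (insect cell) at ~0.5 µg/mL, preincubated with compound 15 min at 22 °C in Tris pH 8.0 buffer, then reacted 25 min with 2 mM ATP and 0.75 µM biotinylated peptide (final). Phospho-substrate detected by TR-FRET (anti-RB pSer807/811, Eu/XL665), 665/620 nm ratio normalised to no-inhibitor and no-enzyme controls.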

CDK12 = molecular target: T2, CDK12 (Homo sapiens, UniProt Q9NYV4); test: CDK12 nuclear protein level: immunofluorescence/high content analysis in CAL-120 cells; format: cell-based; conditions: for DC50: CAL-120 cells, 24 h, nuclear CDK12 staining intensity, median, read-out: CDK12 degradation IF DC50 - [mol/l] (median); for (IC50 CDK12 high ATP) to (Degradation DC50 CDK12) ratio: ratio of IC50 CDK12 hATP (2 mM ATP) to DC50 CDK12 (IF, CAL-120)
T2 construct: endogenous in cells; host or cells: CAL-120 human breast cancer cells (DSMZ ACC 459)
Method in brief: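 Cells were exposed to compounds in dose-response for 24 h at 37 °C, then PFA-fixed, immunostained for CDK12 and counterstained with Hoechst before confocal imaging. Nuclear CDK12 intensity was normalized to DMSO and control. DC50 is the concentration giving 50% reduction of nuclear staining.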

T2 sequence (Q9NYV4 whole entry): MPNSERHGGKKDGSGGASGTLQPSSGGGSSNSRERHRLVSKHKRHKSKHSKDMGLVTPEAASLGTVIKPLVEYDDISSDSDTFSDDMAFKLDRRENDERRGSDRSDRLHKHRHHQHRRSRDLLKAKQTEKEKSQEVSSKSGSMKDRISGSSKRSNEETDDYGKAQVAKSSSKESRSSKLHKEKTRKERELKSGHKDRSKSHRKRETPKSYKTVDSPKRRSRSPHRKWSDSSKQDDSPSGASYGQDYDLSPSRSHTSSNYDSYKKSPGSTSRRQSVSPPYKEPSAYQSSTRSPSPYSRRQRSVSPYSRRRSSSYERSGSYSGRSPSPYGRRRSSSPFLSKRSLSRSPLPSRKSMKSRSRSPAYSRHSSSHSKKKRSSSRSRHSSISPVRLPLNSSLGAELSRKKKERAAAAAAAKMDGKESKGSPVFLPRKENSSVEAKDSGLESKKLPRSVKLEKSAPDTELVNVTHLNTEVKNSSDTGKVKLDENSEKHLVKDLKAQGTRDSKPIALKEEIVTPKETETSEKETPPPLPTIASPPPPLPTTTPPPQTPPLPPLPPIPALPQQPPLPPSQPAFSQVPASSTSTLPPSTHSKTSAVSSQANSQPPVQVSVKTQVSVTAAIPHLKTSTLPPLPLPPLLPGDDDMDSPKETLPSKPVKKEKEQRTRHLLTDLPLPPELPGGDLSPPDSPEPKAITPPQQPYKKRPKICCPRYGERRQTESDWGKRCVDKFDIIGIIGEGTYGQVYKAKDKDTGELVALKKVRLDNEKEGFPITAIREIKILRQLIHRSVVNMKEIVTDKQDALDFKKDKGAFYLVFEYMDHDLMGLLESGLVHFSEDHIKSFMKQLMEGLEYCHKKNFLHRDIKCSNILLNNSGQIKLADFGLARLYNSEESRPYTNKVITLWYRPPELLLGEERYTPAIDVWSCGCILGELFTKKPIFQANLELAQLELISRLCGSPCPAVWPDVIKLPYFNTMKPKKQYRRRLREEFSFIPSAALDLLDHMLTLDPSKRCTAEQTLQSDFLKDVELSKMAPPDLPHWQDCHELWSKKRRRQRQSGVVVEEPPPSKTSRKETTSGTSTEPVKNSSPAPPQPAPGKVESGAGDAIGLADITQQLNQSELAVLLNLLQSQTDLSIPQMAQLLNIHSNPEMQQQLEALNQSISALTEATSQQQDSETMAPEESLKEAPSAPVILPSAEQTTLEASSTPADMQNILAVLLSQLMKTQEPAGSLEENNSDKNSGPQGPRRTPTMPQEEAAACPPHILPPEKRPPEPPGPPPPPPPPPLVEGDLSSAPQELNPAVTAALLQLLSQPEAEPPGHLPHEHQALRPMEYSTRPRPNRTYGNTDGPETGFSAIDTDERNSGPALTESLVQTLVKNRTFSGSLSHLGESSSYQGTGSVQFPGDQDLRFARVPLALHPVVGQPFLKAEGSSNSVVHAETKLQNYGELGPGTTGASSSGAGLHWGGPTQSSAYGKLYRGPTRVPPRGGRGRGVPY
T2 sequence (O75909 whole entry partner): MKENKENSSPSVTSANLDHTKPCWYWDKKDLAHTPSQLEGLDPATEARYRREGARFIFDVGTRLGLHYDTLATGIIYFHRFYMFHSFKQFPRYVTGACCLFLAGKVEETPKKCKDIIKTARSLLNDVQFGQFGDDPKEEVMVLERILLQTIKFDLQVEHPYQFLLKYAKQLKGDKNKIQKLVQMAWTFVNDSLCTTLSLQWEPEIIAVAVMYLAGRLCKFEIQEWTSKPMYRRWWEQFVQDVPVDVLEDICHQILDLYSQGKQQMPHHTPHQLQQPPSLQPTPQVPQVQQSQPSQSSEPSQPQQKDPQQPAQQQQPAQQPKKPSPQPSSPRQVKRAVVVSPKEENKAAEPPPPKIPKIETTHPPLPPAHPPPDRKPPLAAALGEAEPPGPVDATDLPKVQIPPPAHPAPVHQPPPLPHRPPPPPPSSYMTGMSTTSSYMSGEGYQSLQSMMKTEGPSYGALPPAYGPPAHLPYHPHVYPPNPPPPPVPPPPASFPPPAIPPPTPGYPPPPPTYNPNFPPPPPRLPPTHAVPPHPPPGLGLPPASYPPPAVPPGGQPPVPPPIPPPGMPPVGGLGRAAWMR
T1 sequence (P50750 whole entry): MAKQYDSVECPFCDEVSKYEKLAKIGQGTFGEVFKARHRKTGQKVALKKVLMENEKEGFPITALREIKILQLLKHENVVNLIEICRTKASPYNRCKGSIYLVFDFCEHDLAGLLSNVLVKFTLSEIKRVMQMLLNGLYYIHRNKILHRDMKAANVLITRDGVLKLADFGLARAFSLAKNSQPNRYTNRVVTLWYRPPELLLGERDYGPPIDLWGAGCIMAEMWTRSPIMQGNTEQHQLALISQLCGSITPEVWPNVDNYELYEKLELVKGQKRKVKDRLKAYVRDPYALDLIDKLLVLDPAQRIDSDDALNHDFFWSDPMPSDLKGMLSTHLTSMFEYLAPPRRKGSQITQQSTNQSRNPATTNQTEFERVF
T1 sequence (O60563 whole entry partner): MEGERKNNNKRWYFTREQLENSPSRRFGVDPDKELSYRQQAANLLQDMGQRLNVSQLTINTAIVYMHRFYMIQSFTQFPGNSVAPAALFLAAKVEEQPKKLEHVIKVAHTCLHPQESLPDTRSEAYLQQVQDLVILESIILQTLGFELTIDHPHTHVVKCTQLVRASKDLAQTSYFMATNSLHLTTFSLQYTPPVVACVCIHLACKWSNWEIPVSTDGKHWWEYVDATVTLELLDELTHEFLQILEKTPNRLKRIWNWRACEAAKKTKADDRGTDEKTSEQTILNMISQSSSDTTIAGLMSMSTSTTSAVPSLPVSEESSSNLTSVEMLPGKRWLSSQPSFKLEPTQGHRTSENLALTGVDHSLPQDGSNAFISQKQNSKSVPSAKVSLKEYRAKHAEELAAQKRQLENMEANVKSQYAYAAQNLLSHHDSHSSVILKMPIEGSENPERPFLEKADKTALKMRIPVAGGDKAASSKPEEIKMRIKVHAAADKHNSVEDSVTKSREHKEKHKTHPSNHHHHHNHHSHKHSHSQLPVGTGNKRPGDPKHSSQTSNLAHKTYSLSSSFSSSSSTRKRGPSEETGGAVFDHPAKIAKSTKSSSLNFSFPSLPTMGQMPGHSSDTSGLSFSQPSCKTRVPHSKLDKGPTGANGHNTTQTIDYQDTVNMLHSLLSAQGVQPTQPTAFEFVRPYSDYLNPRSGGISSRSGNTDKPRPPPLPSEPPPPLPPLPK

| SMILES | IC50 (CDK9/CyclinT1) [nM] | DC50 (CDK12) [nM] | (IC50 CDK12 high ATP) to (Degradation DC50 CDK12) ratio (CDK12) |
| --- | --- | --- | --- |
| c1ccc2[nH]c(CNc3nn(C4CCC4)c4nc(C5CC5)cnc34)nc2c1 [Example 49, N-[(1H-benzimidazol-2-yl)methyl]-1-cyclobutyl-6-cyclopropyl-1H-pyrazolo[3,4-b]pyrazin-3-amine] | > 20000 | 29.2 | >685 |
| CC(C)(C)OC(=O)N1CCC(n2nc(NCc3nc4ccccc4[nH]3)c3ncc(C4CC4)nc32)CC1 [Example 11, tert-butyl 4-(3-{[(1H-benzimidazol-2-yl)methyl]amino}-6-cyclopropyl-1H-pyrazolo[3,4-b]pyrazin-1-yl)piperidine-1-carboxylate] | > 20000 | 74.9 | >267 |
| c1ccc2[nH]c(CNc3nn(C4CC5(COC5)C4)c4nc(C5CC5)cnc34)nc2c1 [Example 54, N-[(1H-benzimidazol-2-yl)methyl]-6-cyclopropyl-1-(2-oxaspiro[3.3]heptan-6-yl)-1H-pyrazolo[3,4-b]pyrazin-3-amine] | > 20000 | 13.1 | – |
| OC[C@H]1C[C@H](n2nc(NCc3nc4ccccc4[nH]3)c3ncc(C4CC4)nc32)C1 [Example 46, [trans-3-(3-{[(1H-benzimidazol-2-yl)methyl]amino}-6-cyclopropyl-1H-pyrazolo[3,4-b]pyrazin-1-yl)cyclobutyl]methanol] | > 20000 | 13.8 | – |
| CC(C)(O)C1CC(n2nc(NCc3nc4ccccc4[nH]3)c3ncc(C4CC4)nc32)C1 (mixture of isomers) [Example 48, 2-[cis/trans-3-(3-{[(1H-benzimidazol-2-yl)methyl]amino}-6-cyclopropyl-1H-pyrazolo[3,4-b]pyrazin-1-yl)cyclobutyl]propan-2-ol] | > 20000 | 7.12 | – |
| c1ccc2[nH]c(CNc3nn(C4COC4)c4nc(C5CC5)cnc34)nc2c1 [Example 55, N-[(1H-benzimidazol-2-yl)methyl]-6-cyclopropyl-1-(oxetan-3-yl)-1H-pyrazolo[3,4-b]pyrazin-3-amine] | > 20000 | 46.9 | – |
| OCC1(Cn2nc(NCc3nc4ccccc4[nH]3)c3ncc(C4CC4)nc32)CCC1 [Example 74, {1-[(3-{[(1H-benzimidazol-2-yl)methyl]amino}-6-cyclopropyl-1H-pyrazolo[3,4-b]pyrazin-1-yl)methyl]cyclobutyl}methanol] | > 20000 | 15.1 | >660 |
| FC1(F)CCC(n2nc(NCc3nc4ccccc4[nH]3)c3ncc(C4CC4)nc32)CC1 [Example 36, N-[(1H-benzimidazol-2-yl)methyl]-6-cyclopropyl-1-(4,4-difluorocyclohexyl)-1H-pyrazolo[3,4-b]pyrazin-3-amine] | > 20000 | 162 | >124 |
| CN1CCC(n2nc(NCc3nc4ccccc4[nH]3)c3ncc(C4CC4)nc32)C1 (single isomer, unassigned) [Example 79, (−) or (+)-N-[(1H-benzimidazol-2-yl)methyl]-6-cyclopropyl-1-(1-methylpyrrolidin-3-yl)-1H-pyrazolo[3,4-b]pyrazin-3-amine] | > 20000 | 41.2 | – |
| O[C@H]1C[C@@H](n2nc(NCc3nc4ccccc4[nH]3)c3ncc(C4CC4)nc32)C1 [Example 40, cis-3-(3-{[(1H-benzimidazol-2-yl)methyl]amino}-6-cyclopropyl-1H-pyrazolo[3,4-b]pyrazin-1-yl)cyclobutan-1-ol] | > 20000 | 2.55 | >7840 |
| Cn1nc(NCc2nc3ccccc3[nH]2)c2ncc(C3CC3)nc21 [Example 15, N-[(1H-benzimidazol-2-yl)methyl]-6-cyclopropyl-1-methyl-1H-pyrazolo[3,4-b]pyrazin-3-amine] | > 20000 | 155 | >129 |
| c1ccc2[nH]c(CNc3nn(C4CCNCC4)c4nc(C5CC5)cnc34)nc2c1 [Example 12, N-[(1H-benzimidazol-2-yl)methyl]-6-cyclopropyl-1-(piperidin-4-yl)-1H-pyrazolo[3,4-b]pyrazin-3-amine] | > 20000 | 8.53 | >2344 |
| Cc1cnc2c(NCc3nc4ccccc4[nH]3)nn(C3CCN(C)CC3)c2n1 [Example 77, N-[(1H-benzimidazol-2-yl)methyl]-6-methyl-1-(1-methylpiperidin-4-yl)-1H-pyrazolo[3,4-b]pyrazin-3-amine] | > 20000 | 127 | >133 |
| Fc1ccc2[nH]c(CNc3nn(C4CCOCC4)c4nc(C5CC5)cnc34)nc2c1 [Example 53, 6-cyclopropyl-N-[(5-fluoro-1H-benzimidazol-2-yl)methyl]-1-(oxan-4-yl)-1H-pyrazolo[3,4-b]pyrazin-3-amine] | > 20000 | 32 | – |
| CN(C)CCn1nc(NCc2nc3ccccc3[nH]2)c2ncc(C3CC3)nc21 [Example 68, N-[(1H-benzimidazol-2-yl)methyl]-6-cyclopropyl-1-[2-(dimethylamino)ethyl]-1H-pyrazolo[3,4-b]pyrazin-3-amine] | > 20000 | 29.1 | >687 |
| c1ccc2[nH]c(CNc3nn(C4CCOC4)c4nc(C5CC5)cnc34)nc2c1 (single isomer, unassigned) [Example 18, (-) or (+) -N-[(1H-benzimidazol-2-yl)methyl]-6-cyclopropyl-1-[oxolan-3-yl]-1H-pyrazolo[3,4-b]pyrazin-3-amine] | > 20000 | 17.5 | >1142 |
| CN1CCC(n2nc(NCc3nc4cc(SC(F)(F)F)ccc4[nH]3)c3ncc(C4CC4)nc32)CC1 [Example 27, 6-cyclopropyl-1-(1-methylpiperidin-4-yl)-N-({5-[(trifluoromethyl)sulfanyl]-1H-benzimidazol-2-yl}methyl)-1H-pyrazolo[3,4-b]pyrazin-3-amine] | > 20000 | 49.1 | 41 |
| CN1CCC(n2nc(NCc3nc4ccccc4[nH]3)c3ncc(C4CC4)nc32)CC1 [Example 1, N-[(1H-benzimidazol-2-yl)methyl]-6-cyclopropyl-1-(1-methylpiperidin-4-yl)-1H-pyrazolo[3,4-b]pyrazin-3-amine] | > 20000 | 4.2 | >2380 |
| OC1(Cn2nc(NCc3nc4ccccc4[nH]3)c3ncc(C4CC4)nc32)CCC1 [Example 72, 1-[(3-{[(1H-benzimidazol-2-yl)methyl]amino}-6-cyclopropyl-1H-pyrazolo[3,4-b]pyrazin-1-yl)methyl]cyclobutan-1-ol] | > 20000 | 18.7 | >536 |
| COCCCn1nc(NCc2nc3ccccc3[nH]2)c2ncc(C3CC3)nc21 [Example 61, N-[(1H-benzimidazol-2-yl)methyl]-6-cyclopropyl-1-(3-methoxypropyl)-1H-pyrazolo[3,4-b]pyrazin-3-amine] | > 20000 | 163 | >123 |
| CN1CCC(n2nc(NCc3nc4cc(F)c(F)cc4[nH]3)c3ncc(C4CC4)nc32)CC1 [Example 30, 6-cyclopropyl-N-[(5,6-difluoro-1H-benzimidazol-2-yl)methyl]-1-(1-methylpiperidin-4-yl)-1H-pyrazolo[3,4-b]pyrazin-3-amine] | > 20000 | 17.1 | >1376 |
| OCCn1nc(NCc2nc3ccccc3[nH]2)c2ncc(C3CC3)nc21 [Example 66, 2-(3-{[(1H-benzimidazol-2-yl)methyl]amino}-6-cyclopropyl-1H-pyrazolo[3,4-b]pyrazin-1-yl)ethan-1-ol] | > 20000 | 19.4 | >1116 |
